According to patent publication US20080299109A1, “MECHANISM OF ASTRICYTE-NEURON SIGNALING” (Korea Institute of Science and Technology, priority 2007, published 2008):

Tests used:
[1] = test system: PAR1−/− cortical neurons on wild-type astrocyte monolayer; test: PAR1−/− cortical neurons co-cultured on wild-type astrocytes: dendritic Ca2+ and voltage clamp; type: cell-based, mouse; conditions: 300 μM TFLLR pressure-applied to astrocytes; 50 μM NMDA
Description: For an astrocyte-neuron co-culture, a monolayer of wild-type astrocytes was grown to 70-100% confluency (7-14 days in culture). Subsequently, the cortex from a P0 to P5 PAR1−/− mouse (Connolly et al., 1996) was dissected free of meninges and digested for 30 min in 1 mg/ml trypsin at 37° C. PAR1−/− mice were >99% C57B1/6 (>7 backcrossings), and wild-type mice were from a colony derived from PAR1−/− littermates.
All experiments were done within 3 generations of establishing the homozygous colony. The cortical cells were plated at low density on top of the monolayer of wild-type astrocytes obtained in above Example 1.1. Neurons were used for Ca^2+ imaging after 1-5 days in culture.
(§1) Whole-cell perforated-patch recording from cultured cortical neurons or HEK cells under voltage clamp (holding potential −60 mV) was made with an Axopatch 200B amplifier (Axon Instruments, Union City, Calif.). The recording chamber was continually perfused with a recording solution comprised of 150 mM NaCl, 3 mM KCl, 2 mM CaCl2, 5.5 mM glucose, and 10 mM HEPES (pH 7.4 by NaOH; osmolality adjusted to 315-320 mOsm with sucrose). Recording electrodes (4-7 MΩ) were filled with (in mM) 150 mM CsMeSO4, 10 mM NaCl, 0.5 CaCl2, 10 mM HEPES, and 25-50 μg/ml gramicidin D (pH adjusted to 7.3 with CsOH and osmolality adjusted to 310 mOsm with sucrose). It took 20-30 min to achieve acceptable perforation with series resistance ranging from 30-60 MΩ. All electrophysiological data from cultured neurons cells in this study were collected at room temperature (23-26° C.).
After a 20 min recovery, the bath perfusion was stopped and TFLLR was applied by brief (<1 sec) pressure ejection onto the astrocyte hosting the dye-loaded neuron in a static bath condition. Changes in fluorescence were monitored in a number of dendritic processes (schematized in FIGS. 8a and 8b).

cultured astrocytes = test: 3H-glutamate release assay in cultured wild-type astrocytes; type: cell-based, mouse; conditions: 50 μM BAPTA-AM 30 min; 50 μM trans-PDC present or absent
Description: Astrocytes obtained in the above Example 1.1 were loaded with 0.5 μM L-3H-glutamate for 60 min by adding […] of 1 mCi/ml L-3H-glutamate stock solution to 2 ml of DMEM culture media.
Cells were washed with an external solution 3 times.
Agonists (TFLLR 30 μM) were added to the external solution for 6 min and the experiment was terminated by collection of the solution. Each experimental run included a control condition in which no agonist was added. Six replicates were obtained for each drug condition. For analysis, the average radioactivity count was obtained from 6 replicates for each condition and this average was compared to the average of the control condition.
Cells were washed with an external solution and subsequently TFLLR (30 μM) was added for 6 min. […] In the top panel, the thick boxes represent cells in culture media and the white boxes represent cells in external solution.

[2] = test system: cultured wild-type mouse astrocytes; test: Fura-2 intracellular Ca2+ imaging in cultured wild-type astrocytes; type: cell-based; conditions: 30 μM TFLLR; for effect on TFLLR-induced Ca^2+ response: 1 μM BMS200261, 1 μM thapsigargin, 50 μM BAPTA-AM 30 min, 2 μM U-73122 10 min; for level of astrocytic intracellular Ca^2+ (Fura-2 fluorescence ratio): 10 μM bradykinin, 50 μM 2-methyl-thio-ATP, 10 μM ATP, 30 nM thrombin
Description: Cultured astrocytes were prepared from P0-P3 postnatal mice obtained from KIST SPF. The cerebral cortex was dissected free of adherent meninges, minced, and dissociated into single cell suspension by trituration through a Pasteur pipette. All procedures involving the use of animals were reviewed and approved by the Emory University IACUC. Dissociated cells were plated onto either 12 mm glass coverslips or 6 well plates coated with 0.1 mg/ml poly-D-lysine. Cells were grown in a DMEM media (Gibco, cat# 11960-044) supplemented with 25 mM glucose, 10% heat-inactivated horse serum, and 10% heat-inactivated fetal bovine serum, 2 mM glutamine, and 1000 units/ml penicillin-streptomycin. Cultures were maintained at 37° C. in a humidified 5% CO2-containing atmosphere. […] In some experiments, the culture media was replaced 24 hours after plating with DMEM with all added components except glutamine, and cultures were maintained for 4 days before experimentation in glutamine-free media.
Cultured astrocytes were incubated with 5 µM Fura2-AM in […] pluronic acid (Molecular Probes) for 30 min at room temperature, and subsequently transferred to a microscope stage for imaging. The external solution contained 150 mM NaCl, 10 mM HEPES, 3 mM KCl, 2 mM CaCl2, 2 mM MgCl2, and 5.5 mM glucose, and the pH was adjusted to pH 7.3 and osmolarity to 325 mOsm. Intensity images of a 510 nm wavelength were taken at 340 nm and 380 nm excitation wavelengths using either a Micromax Camera (Princeton) or an intensified video camera (PTI), and the two resulting images were used for ratio calculations using Axon Imaging Workbench version 2.2.1.

GluR1(L497Y) = target: T1, GluR1(L497Y) (Rattus norvegicus, UniProt P19490, L497Y); test: Glutamate activation of GluR1(L497Y) in transfected HEK cells; type: cell-based
T1 construct: expressed in transfected cells; host or cells: HEK 293 cells (ATCC1573)
T1 sequence (P19490 19-907 L497Y): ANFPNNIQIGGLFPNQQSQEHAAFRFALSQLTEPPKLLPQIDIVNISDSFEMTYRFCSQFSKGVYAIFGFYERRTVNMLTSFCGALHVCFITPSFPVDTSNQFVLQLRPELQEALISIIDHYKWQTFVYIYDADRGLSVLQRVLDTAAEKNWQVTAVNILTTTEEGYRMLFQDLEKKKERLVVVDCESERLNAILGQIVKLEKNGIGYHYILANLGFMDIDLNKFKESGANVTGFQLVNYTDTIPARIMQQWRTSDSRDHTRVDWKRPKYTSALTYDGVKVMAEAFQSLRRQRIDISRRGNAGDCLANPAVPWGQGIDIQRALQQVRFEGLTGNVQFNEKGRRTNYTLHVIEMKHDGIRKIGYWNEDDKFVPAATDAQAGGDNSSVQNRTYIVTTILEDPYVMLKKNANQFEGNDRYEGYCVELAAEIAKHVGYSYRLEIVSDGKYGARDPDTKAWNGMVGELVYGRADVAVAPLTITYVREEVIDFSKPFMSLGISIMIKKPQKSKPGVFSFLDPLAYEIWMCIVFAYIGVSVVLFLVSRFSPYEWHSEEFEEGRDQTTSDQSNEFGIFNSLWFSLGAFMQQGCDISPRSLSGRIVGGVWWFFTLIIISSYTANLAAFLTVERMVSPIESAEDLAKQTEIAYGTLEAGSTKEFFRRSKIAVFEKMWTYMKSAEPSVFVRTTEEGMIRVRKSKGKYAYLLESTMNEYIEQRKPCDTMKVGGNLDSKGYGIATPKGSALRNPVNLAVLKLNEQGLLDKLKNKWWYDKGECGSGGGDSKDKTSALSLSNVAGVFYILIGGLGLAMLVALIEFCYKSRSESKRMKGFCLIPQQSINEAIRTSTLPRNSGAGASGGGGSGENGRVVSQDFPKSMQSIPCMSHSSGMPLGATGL
Description: (§2) HEK 293 cells were transfected with a 1:3.5 ratio of GFP and GluR1(L497Y) using the calcium phosphate method using effectence for 6-8 hours, after which the media was replaced and supplemented with 1 mM kynurenic acid and 10 μM N-(4-hydroxyphenylpropanoyl) spermine or 10 μM CNQX.
as §1

wild-type astrocytes = test: Sniffer-patch detection of glutamate release, GluR1(L497Y)-transfected HEK cells on wild-type astrocytes; type: cell-based, mouse
Description: HEK 293 cells (ATCC1573) were plated onto 12 mm glass coverslips coated with 5-10 ug/ml poly-D-lysine and grown in a DMEM media (Gibco, cat# 11960-044) supplemented with 25 mM glucose, 10% heat-inactivated horse serum, and 10% heat-inactivated fetal bovine serum, 2 mM glutamine, and 1000 units/ml penicillin-streptomycin (Banke & Traynelis, 2000; Traynelis & Wahl, 1996). The obtained cultures were maintained at 37° C. in a humidified 5% CO2-containing atmosphere.
as §2, with “CNQX. The transfected HEK cells were subsequently trypsinized and replated onto astrocyte feeder layers derived from either wild-type or PAR1−/− mice 24 hours post-transfection, and recordings performed 24 hours after replating.” for “CNQX.”
as §1
Thus, this technique provides millisecond time resolution for the detection of micromolar levels of glutamate released from astrocytes.
GluR1(L497Y)-transfected HEK cells were directly plated onto an astrocyte monolayer, and subsequently the whole cell HEK current response under voltage clamp during a brief 0.2 sec application of the PAR1 activator TFLLR (500 μM), ATP (300 μM), or bradykinin (180 μM), respectively, from a pressurized pipette was recorded (FIGS. 5a, and 5b).
Concentration(t)=EC50[response(t)/(100−response(t))]^(1/n) (Formula 1)

cultured neurons = test: Sniffer-patch glutamate release from cultured neurons; type: cell-based; conditions: 10 μM CNQX, 530 mOsm
Description: To verify this prediction, effects of a hyperosmotic solution on the glutamate-release from cultured neurons and astrocytes were evaluated and are shown in FIGS. 7a to 7c.
The detection is abolished by the treatment of 10 μM CNQX.

glutamate transporters = conditions: read-out: IC50 glutamate uptake block; Mitrovic & Johnston, 1994; cited from earlier work
CA1 pyramidal neurons = test: Ca2+ dye imaging of CA1 pyramidal neurons in hippocampal slices; type: cell-based, rat; conditions: thrombin 30 nM, TFLLR 30 μM, trans-ACPD 100 μM, (S)-3,5-dihydroxyphenylglycine 30 μM
Description: Young rats (Sprague-Dawley, age P15-P20) or mice (C57/B16, age P14-19) were deeply anesthetized with isoflurane and decapitated. The brain was rapidly removed and submerged in an ice-cold oxygenated artificial cerebrospinal fluid (ACSF) comprised of 130 mM NaCl, 24 mM NaHCO3, 3.5 mM KCl, 1.25 mM NaH2PO4, 1 mM CaCl2,3 mM MgCl2, and 10 mM glucose saturated with 95% O2/5% CO2, at pH 7.4.
The external solution contained 1 μM TTX. Throughout the experiments, −5 mV voltage steps (15 ms duration) were applied at 30 sec intervals from a holding potential of −70 mV to continuously monitor the holding current, series resistance, and membrane input resistance. After entering whole-cell mode, the CA1 pyramidal cells in slices were maintained for 20 min to allow for dye filling before image acquisition using a Princeton Micromax camera.
After the baseline period, TFLLR (30-100 μM) was applied, and images were acquired every 3 sec with a 25 ms exposure to 450-490 nm light for each image. Ca^2+-dependent fluorescence intensity (520 nm) was measured in cell bodies and processes by using Axon Imaging Workbench (v2.2.1) and expressed as ratio image of (F-Fo)/Fo, where Fo is the fluorescence intensity before drug treatment.

PAR1−/− mouse astrocytes = test: Fura-2 intracellular Ca2+ imaging in cultured PAR1−/− astrocytes; type: cell-based; conditions: 30 μM TFLLR, 30 nM thrombin, 10 μM ATP positive control
Description: Cultured astrocytes were prepared from P0-P3 postnatal mice obtained from KIST SPF. The cerebral cortex was dissected free of adherent meninges, minced, and dissociated into single cell suspension by trituration through a Pasteur pipette. All procedures involving the use of animals were reviewed and approved by the Emory University IACUC. Dissociated cells were plated onto either 12 mm glass coverslips or 6 well plates coated with 0.1 mg/ml poly-D-lysine. Cells were grown in a DMEM media (Gibco, cat# 11960-044) supplemented with 25 mM glucose, 10% heat-inactivated horse serum, and 10% heat-inactivated fetal bovine serum, 2 mM glutamine, and 1000 units/ml penicillin-streptomycin. Cultures were maintained at 37° C. in a humidified 5% CO2-containing atmosphere. Astrocyte cultures prepared in this way were previously determined by GFAP (glial fibrillary acidic protein) staining to be greater than 95% astrocytes (Nicole et al., 2005). In some experiments, the culture media was replaced 24 hours after plating with DMEM with all added components except glutamine, and cultures were maintained for 4 days before experimentation in glutamine-free media.
Cultured astrocytes were incubated with 5 µM Fura2-AM in […] pluronic acid (Molecular Probes) for 30 min at room temperature, and subsequently transferred to a microscope stage for imaging. […]

With CN[C@H](CC(=O)O)C(=O)O [NMDA, N-methyl-D-aspartic acid] as the compound, how does the “intra-neuronal Ca^2+ in dendrites (Oregon Green BAPTA-2 fluorescence)” value [1] read?
The value was “saturating response”.

With CC(=O)OCOC(=O)CN(CC(=O)OCOC(C)=O)c1ccccc1OCCOc1ccccc1N(CC(=O)OCOC(C)=O)CC(=O)OCOC(C)=O [BAPTA-AM, 1,2-bis(2-aminophenoxy)ethane-N,N,N′,N′-tetra-acetic acid acetoxymethyl ester] as the compound, how does the “effect on TFLLR-induced glutamate release” value (cultured astrocytes) read?
Its value is “blocked”.

With C/C=C(/C)C(=O)O[C@H]1C(C)=C2[C@H]([C@@H]1OC(=O)CCCCCCC)[C@@](C)(OC(C)=O)C[C@H](OC(=O)CCC)[C@@]1(O)[C@H]2OC(=O)[C@@]1(C)O [thapsigargin] as the compound, how does the “effect on TFLLR-induced Ca^2+ response” value [2] read?
Its value is “blocked”.

With “trans-Cinnamoyl-F(f)-F(Gn)L-Arg-Arg-NH2 [BMS 200261]” as the compound, how does the “effect on TFLLR-induced Ca^2+ response” value [2] read?
Its value is “reversibly and completely antagonized”.

With N[C@@H](CCC(=O)O)C(=O)O [glutamate] as the compound, how does the Hill slope (GluR1(L497Y)) read?
Its Hill slope is 1.3.

Which “level of astrocytic intracellular Ca^2+ (Fura-2 fluorescence ratio)” value [2] does the source give for CSc1nc(N)c2ncn([C@@H]3O[C@H](COP(=O)(O)OP(=O)(O)OP(=O)(O)O)[C@@H](O)[C@H]3O)c2n1 [2-methyl-thio-ATP] here?
The value was “increase”.

For N#Cc1cc2[nH]c(=O)c(=O)[nH]c2cc1[N+](=O)[O-] [CNQX], which “effect on TFLLR-evoked inward current in GluR1(L497Y) HEK cell” value (wild-type astrocytes; 10 μM CNQX) is on record?
The value was “reversibly inhibits”.

What about the “effect on TFLLR-evoked inward currents, glutamine-free medium” value (wild-type astrocytes; glutamine-free medium) of the same compound?
Its value is “completely abolished”.

What about the “effect on detection of hyperosmotic-solution evoked neuronal glutamate release” value (cultured neurons) of the same compound?
The value was “abolished”.

For COc1ccc2c(c1)CC[C@@H]1[C@@H]2CC[C@]2(C)[C@@H](NCCCCCCN3C(=O)C=CC3=O)CC[C@@H]12 [U-73122], which “effect on TFLLR-induced Ca^2+ response” value [2] is on record?
The value was “similarly blocked”.

Which “effect on TFLLR-induced glutamate release” value (cultured astrocytes) does the source give for O=C(O)[C@H]1CN[C@H](C(=O)O)C1 [trans-PDC, L-transpyrrolidine-2,4-dicarboxylic acid] here?
The value was “indistinguishable”.

What about the IC50 (glutamate transporters) of the same compound?
Its IC50 is 4 to 8 µM.

Which “somatic fluorescence of Ca^2+-sensitive dyes in CA1 pyramidal neurons” value (CA1 pyramidal neurons) does the source give for N[C@H](C(=O)O)c1cc(O)cc(O)c1 [(S)-3,5-dihydroxyphenylglycine] here?
Its value is “strong increases”.

Which results are given for Nc1ncnc2c1ncn2[C@@H]1O[C@H](COP(=O)(O)OP(=O)(O)OP(=O)(O)O)[C@@H](O)[C@H]1O [ATP]?
level of astrocytic intracellular Ca^2+ (Fura-2 fluorescence ratio) [2]: increase; intracellular Ca^2+ concentration in PAR1−/− astrocytes (PAR1−/− mouse astrocytes): still responded; inward current in adjacent GluR1(L497Y)-transfected HEK cell (wild-type astrocytes; brief pressure application 500 μM TFLLR, 300 μM ATP, 180 μM bradykinin): elicited an inward current; peak glutamate concentration (wild-type astrocytes; wild-type astrocytes, converted from current by Formula 1): ~5.9 µM
